This note sets out measurements from patent US20060178374A1, “Aminoheteroaryl compounds as protein kinase inhibitors” (AGOURON PHARMACEUTICALS, INC., priority 2004, published 2006).

The term Ki denotes a dissociation constant, usually derived from enzyme kinetics or from competition with a known ligand.

In the assay the target is HGFR (c-Met) (Homo sapiens, UniProt P08581). Put plainly: HGFR Continuous-Coupled Spectrophotometric Assay. In kind it is biochemical. Particulars: HGFR enzyme 50 nM, Met-2 peptide substrate, 37° C. The method, boiled down: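 Human HGFR (50 nM final) phosphorylates the Met-2 activation-loop peptide, with ADP formation coupled through PK/LDH to NADH consumption, read as the A340 decrease over 10 min at 37 °C. Buffer was HEPES pH 7.5 with MgCl2, DTT, PEP and ATP.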
HGFR (c-Met), sequence (P08581 974-1390): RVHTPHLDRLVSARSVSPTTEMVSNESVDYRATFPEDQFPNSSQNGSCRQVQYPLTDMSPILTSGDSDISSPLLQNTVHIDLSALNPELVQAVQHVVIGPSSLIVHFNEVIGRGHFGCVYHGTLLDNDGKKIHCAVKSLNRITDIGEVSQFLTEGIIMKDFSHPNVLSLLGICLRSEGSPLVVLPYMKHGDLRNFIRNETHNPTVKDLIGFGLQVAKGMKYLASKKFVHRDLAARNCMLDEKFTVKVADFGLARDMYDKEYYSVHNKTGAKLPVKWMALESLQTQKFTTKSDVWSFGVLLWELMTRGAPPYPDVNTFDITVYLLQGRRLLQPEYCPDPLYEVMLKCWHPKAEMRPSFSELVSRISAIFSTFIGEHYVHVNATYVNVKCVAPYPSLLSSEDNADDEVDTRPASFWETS
On to `CC(Oc1cc(C2=CCCC2)cnc1N)c1c(Cl)ccc(F)c1Cl` (stereo not drawn) [Example 110, 5-cyclopent-1-en-1-yl-3-[1-(2,6-dichloro-3-fluorophenyl)ethoxy]pyridin-2-amine], for which the Ki came to 250 nM.

Regarding `COc1cc(-c2cnc(N)c(OC(C)c3c(Cl)ccc(F)c3Cl)c2)ccc1OCCN1CCCC1` (stereo not drawn) [Example 111, 3-[1-(2,6-dichloro-3-fluorophenyl)ethoxy]-5-[3-methoxy-4-(2-pyrrolidin-1-ylethoxy)phenyl]pyridin-2-amine], the affinity, expressed as Ki, was 28 nM.

Turning to `CC(Oc1cc(-c2ccc(C(=O)N3CC(N)C3)cc2)cnc1N)c1c(Cl)ccc(F)c1Cl` (stereo not drawn) [Example 112, 5-{4-[(3-aminoazetidin-1-yl)carbonyl]phenyl}-3-[1-(2,6-dichloro-3-fluorophenyl)ethoxy]pyridin-2-amine], the Ki was determined as 18 nM.

`CC(Oc1cc(-c2cncnc2)cnc1N)c1c(Cl)ccc(F)c1Cl` (stereo not drawn) [Example 113, 3-[1-(2,6-dichloro-3-fluorophenyl)ethoxy]-5-pyrimidin-5-ylpyridin-2-amine] returned a Ki of 360 nM.

Compound `CC(Oc1cc(-c2cnc(OC3CCN(C(=O)OC(C)(C)C)CC3)nc2)cnc1N)c1c(Cl)ccc(F)c1Cl` (stereo not drawn) [Example 114, tert-butyl 4-[(5-{6-amino-5-[1-(2,6-dichloro-3-fluorophenyl)ethoxy]pyridin-3-yl}pyrimidin-2-yl)oxy]piperidine-1-carboxylate] returned a Ki of 480 nM.

For `CC(Oc1cc(-c2cnc(Cl)nc2)cnc1N)c1c(Cl)ccc(F)c1Cl` (stereo not drawn) [Example 115, 5-(2-chloropyrimidin-5-yl)-3-[1-(2,6-dichloro-3-fluorophenyl)ethoxy]pyridin-2-amine], affinity was put at a Ki of 1500 nM.

In turn, `CC(Oc1cc(-c2cnc(OC3CCNCC3)nc2)cnc1N)c1c(Cl)ccc(F)c1Cl` (stereo not drawn) [Example 116, 3-[1-(2,6-dichloro-3-fluorophenyl)ethoxy]-5-[2-(piperidin-4-yloxy)pyrimidin-5-yl]pyridin-2-amine] registered a Ki of 160 nM.

With `COc1ncc(-c2cnc(N)c(OC(C)c3c(Cl)ccc(OC)c3Cl)c2)cn1` (stereo not drawn) [Example 117, 3-[1-(2,6-dichloro-3-methoxyphenyl)ethoxy]-5-(2-methoxypyrimidin-5-yl)pyridin-2-amine], the Ki came out at 160 nM.

As to `CC(Oc1cc(-c2ccc(C(=O)N(C)CCN(C)C)cc2)cnc1N)c1c(Cl)ccc(F)c1Cl` (stereo not drawn) [Example 118, 4-{6-amino-5-[1-(2,6-dichloro-3-fluorophenyl)ethoxy]pyridin-3-yl}-N-[2-(dimethylamino)ethyl]-N-methylbenzamide], the Ki worked out at 30 nM.

For the compound `C[C@H](Oc1cc(-c2ccc(C(=O)N3CCNCC3)cc2)cnc1N)c1c(Cl)ccc(F)c1Cl` [Example 119, 3-[(1S)-1-(2,6-dichloro-3-fluorophenyl)ethoxy]-5-[4-(piperazin-1-ylcarbonyl)phenyl] pyridin-2-amine], the affinity, expressed as Ki, was 1500 nM.

For the compound `CC(Oc1cc(-c2cnc(N3CCN(C(=O)OC(C)(C)C)CC3)nc2)cnc1N)c1c(Cl)ccc(F)c1Cl` (stereo not drawn) [Example 120, tert-butyl 4-(5-{6-amino-5-[1-(2,6-dichloro-3-fluorophenyl)ethoxy]pyridin-3-yl}pyrimidin-2-yl)piperazine-1-carboxylate], the affinity corresponds to a Ki of 1000 nM.

Compound `CC(Oc1cc(-c2cnc(N3CCNCC3)nc2)cnc1N)c1c(Cl)ccc(F)c1Cl` (stereo not drawn) [Example 121, 3-[1-(2,6-dichloro-3-fluorophenyl)ethoxy]-5-(2-piperazin-1-ylpyrimidin-5-yl)pyridin-2-amine] gave a Ki of 53 nM.

Compound `CC(Oc1cc(-c2ccc(C(=O)N(C)CCCN(C)C)cc2)cnc1N)c1c(Cl)ccc(F)c1Cl` (stereo not drawn) [Example 122, 4-{6-amino-5-[1-(2,6-dichloro-3-fluorophenyl)ethoxy]pyridin-3-yl}-[3-(dimethylamino)propyl]-N-methylbenzamide] registered a Ki of 25 nM.

Turning to `CNCCN(C)C(=O)c1ccc(-c2cnc(N)c(OC(C)c3c(Cl)ccc(F)c3Cl)c2)cc1` (stereo not drawn) [Example 123, 4-{6-amino-5-[1-(2,6-dichloro-3-fluorophenyl)ethoxy]pyridin-3-yl}-N-methyl-N-[2-(methylamino)ethyl]benzamide], the Ki is 60 nM.

Consider `CC(Oc1cc(-c2ccc(NCC3(O)CCNCC3)nc2)cnc1N)c1c(Cl)ccc(F)c1Cl` (stereo not drawn) [Example 124, 4-[({6′-amino-5′-[1-(2,6-dichloro-3-fluorophenyl)ethoxy]-3,3′-bipyridin-6-yl}amino)methyl]piperidin-4-ol], for which the Ki stood at 20 nM.

The compound `CC(Oc1cc(-c2ccc(C3CCNCC3)cc2)cnc1N)c1c(Cl)ccc(F)c1Cl` (stereo not drawn) [Example 125, 3-[1-(2,6-dichloro-3-fluorophenyl)ethoxy]-5-(4-piperidin-4-ylphenyl)pyridin-2-amine] displayed a Ki of 25 nM.

In turn, `C[C@@H](Oc1cc(-c2ccc(C(=O)N(C)CCN(C)C)cc2)cnc1N)c1c(Cl)ccc(F)c1Cl` [Example 126, 4-{6-amino-5-[(1 R)-1-(2,6-dichloro-3-fluorophenyl)ethoxy]pyridin-3-yl}-N-[2-(dimethylamino)ethyl]-N-methylbenzamide] returned a Ki of 10 nM.

The compound `C[C@@H](Oc1cc(-c2ccc(CO)cc2)cnc1N)c1c(Cl)ccc(F)c1Cl` [Example 127, (4-{6-amino-5-[(1R)-1-(2,6-dichloro-3-fluorophenyl)ethoxy]pyridin-3-yl}phenyl)methanol] had an inhibition constant (Ki) of 51 nM.

Take `C[C@@H](Oc1cc(-c2ccc(C(=O)N(C)CCCN(C)C)cc2)cnc1N)c1c(Cl)ccc(F)c1Cl` [Example 128, 4-{6-amino-5-[(1 R^15)-1-(2,6-dichloro-3-fluorophenyl)ethoxy]pyridin-3-yl}-N-[3-(dimethylamino)propyl]-N-methylbenzamide]: the Ki was 10 nM.

`C[C@@H](Oc1cc(-c2ccc(C(=O)N3CCN(C(=O)OC(C)(C)C)CC3)cc2)cnc1N)c1c(Cl)ccc(F)c1Cl` [Example 129, tert-butyl 4-(4-{6-amino-5-[(1 R)-1-(2,6-dichloro-3-fluorophenyl)ethoxy]pyridin-3-yl}benzoyl)piperazine-1-carboxylate] had a Ki of 30 nM.

The compound `CC(Oc1cc(-c2ccc(CO)cc2)cnc1N)c1c(Cl)ccc(F)c1Cl` (stereo not drawn) [Example 130, (4-{6-amino-5-[1-(2,6-dichloro-3-fluorophenyl)ethoxy]pyridin-3-yl}phenyl)methanol] showed a Ki of 71 nM.

For `COc1ccc(-c2cnc(N)c(OC(C)c3c(Cl)ccc(F)c3Cl)c2)cc1` (stereo not drawn) [Example 131, 3-[1-(2,6-dichloro-3-fluorophenyl)ethoxy]-5-(4-methoxyphenyl)pyridin-2-amine], the Ki stood at 133 nM.

In turn, `CC(Oc1cc(-c2cccc(CN)c2)cnc1N)c1c(Cl)ccc(F)c1Cl` (stereo not drawn) [Example 132, 5-[3-(aminomethyl)phenyl]-3-[1-(2,6-dichloro-3-fluorophenyl)ethoxy]pyridin-2-amine] returned a Ki of 69 nM.

As to `CC(Oc1cc(-c2cccc(CC#N)c2)cnc1N)c1c(Cl)ccc(F)c1Cl` (stereo not drawn) [Example 133, (3-{6-amino-5-[1-(2,6-dichloro-3-fluorophenyl)ethoxy]pyridin-3-yl}phenyl)acetonitrile], the Ki was found to be 41 nM.

Take `CC(Oc1cc(-c2ccc(CC#N)cc2)cnc1N)c1c(Cl)ccc(F)c1Cl` (stereo not drawn) [Example 134, (4-{6-amino-5-[1-(2,6-dichloro-3-fluorophenyl)ethoxy]pyridin-3-yl}phenyl)acetonitrile]: the Ki came to 92 nM.

In turn, `CC(Oc1cc(-c2ccc(C(=O)N(C)C)cc2)cnc1N)c1c(Cl)ccc(F)c1Cl` (stereo not drawn) [Example 135, 4-{6-amino-5-[1-(2,6-dichloro-3-fluorophenyl)ethoxy]pyridin-3-yl}-N,N-dimethylbenzamide] had a Ki of 37 nM.

Turning to `CC(Oc1cc(-c2ccc(O)cc2)cnc1N)c1c(Cl)ccc(F)c1Cl` (stereo not drawn) [Example 136, 4-{6-amino-5-[1-(2,6-dichloro-3-fluorophenyl)ethoxy]pyridin-3-yl}phenol], the Ki stood at 73 nM.

Turning to `CC(Oc1cc(-c2ccc(NS(C)(=O)=O)cc2)cnc1N)c1c(Cl)ccc(F)c1Cl` (stereo not drawn) [Example 138, N-(4-{6-amino-5-[1-(2,6-dichloro-3-fluorophenyl)ethoxy]pyridin-3-yl}phenyl) methanesulfonamide], the Ki was found to be 32 nM.

Compound `CCS(=O)(=O)c1ccc(-c2cnc(N)c(OC(C)c3c(Cl)ccc(F)c3Cl)c2)cc1` (stereo not drawn) [Example 139, 3-[1-(2,6-dichloro-3-fluorophenyl)ethoxy]-5-(4-(ethylsulfonyl)phenyl]pyridin-2-amine] yielded a Ki of 53 nM.

On to `COc1cc(-c2cnc(N)c(OC(C)c3c(Cl)ccc(F)c3Cl)c2)ccc1O` (stereo not drawn) [Example 140, 4-{6-amino-5-[1-(2,6-dichloro-3-fluorophenyl)ethoxy]pyridin-3-yl}-2-methoxyphenol], for which the Ki was determined as 39 nM.

`CC(Oc1cc(-c2cccc(NS(C)(=O)=O)c2)cnc1N)c1c(Cl)ccc(F)c1Cl` (stereo not drawn) [Example 141, N-(3-{6-amino-5-[1-(2,6-dichloro-3-fluorophenyl)ethoxy]pyridin-3-yl}phenyl) methanesulfonamide] registered a Ki of 54 nM.

The compound `CC(Oc1cc(-c2cccc(C(=O)N(C)C)c2)cnc1N)c1c(Cl)ccc(F)c1Cl` (stereo not drawn) [Example 142] displayed a Ki of 59 nM.

Compound `CC(Oc1cc(-c2ccc3[nH]cc(CN(C)C)c3c2)cnc1N)c1c(Cl)ccc(F)c1Cl` (stereo not drawn) [Example 143, 3-[1-(2,6-dichloro-3-fluorophenyl)ethoxy]-5-{3-[(dimethylamino)methyl]-1H-indol-5-yl}pyridin-2-amine] displayed a Ki of 72 nM.

With `CC(Oc1cc(-c2ccc(C[C@H](N)C(=O)O)cc2)cnc1N)c1c(Cl)ccc(F)c1Cl` (stereo partly drawn) [Example 144, 4-{6-amino-5-[1-(2,6-dichloro-3-fluorophenyl)ethoxy]pyridin-3-yl}phenylalanine], the affinity, expressed as Ki, was 80 nM.

Turning to `CC(Oc1cc(-c2ccc(CO)nc2)cnc1N)c1c(Cl)ccc(F)c1Cl` (stereo not drawn) [Example 145, {6′-amino-5′-[1-(2,6-dichloro-3-fluorophenyl)ethoxy]-3,3′-bipyridin-6-yl}methanol], the affinity, expressed as Ki, was 69 nM.

For `CC(Oc1cc(-c2ccc(CO)cn2)cnc1N)c1c(Cl)ccc(F)c1Cl` (stereo not drawn) [Example 146, {6′-amino-5′-[1-(2,6-dichloro-3-fluorophenyl)ethoxy]-2,3′-bipyridin-5-yl}methanol], the affinity corresponds to a Ki of 655 nM.
